According to the NIST ThermoML archive (doi:10.1021/acs.jced.8b00524):
Numbers after ± are expanded uncertainties.

Experiments:
[1] = xn = mol fraction of the nth substance listed; conditions: 100 kPa, Liquid; for viscosity: Concentric cylinders viscometry; for mass density: Vibrating tube method
[2] = 100 kPa, Liquid; for viscosity: Concentric cylinders viscometry; for mass density: Vibrating tube method

SMILES | viscosity ([2]; 293.15 K) [mPa·s] | mass density ([2]; 293.15 K) [kg/m3] | viscosity ([2]; 298.15 K) [mPa·s] | mass density ([2]; 298.15 K) [kg/m3] | viscosity ([2]; 303.15 K) [mPa·s] | mass density ([2]; 303.15 K) [kg/m3] | viscosity ([2]; 308.15 K) [mPa·s] | mass density ([2]; 308.15 K) [kg/m3] | viscosity ([2]; 313.15 K) [mPa·s] | mass density ([2]; 313.15 K) [kg/m3] | viscosity ([2]; 318.15 K) [mPa·s] | mass density ([2]; 318.15 K) [kg/m3] | viscosity ([2]; 323.15 K) [mPa·s] | mass density ([2]; 323.15 K) [kg/m3] | also measured
CCCCOC(C)=O [butyl ethanoate] + CCCCCCCCCO |  |  |  |  |  |  |  |  |  |  |  |  |  |  | viscosity ([1]; 293.15 K, x1 = 1): 0.732 ± 0.037 mPa·s; mass density ([1]; 293.15 K, x1 = 1): 881.1 ± 10 kg/m3; viscosity ([1]; 298.15 K, x1 = 1): 0.677 ± 0.034 mPa·s; mass density ([1]; 298.15 K, x1 = 1): 876 ± 10 kg/m3; viscosity ([1]; 303.15 K, x1 = 1): 0.628 ± 0.032 mPa·s; mass density ([1]; 303.15 K, x1 = 1): 870.9 ± 10 kg/m3; viscosity ([1]; 308.15 K, x1 = 1): 0.585 ± 0.03 mPa·s; mass density ([1]; 308.15 K, x1 = 1): 865.7 ± 10 kg/m3; viscosity ([1]; 313.15 K, x1 = 1): 0.546 ± 0.028 mPa·s; mass density ([1]; 313.15 K, x1 = 1): 860.5 ± 10 kg/m3; viscosity ([1]; 318.15 K, x1 = 1): 0.512 ± 0.026 mPa·s; mass density ([1]; 318.15 K, x1 = 1): 855.3 ± 10 kg/m3; viscosity ([1]; 323.15 K, x1 = 1): 0.485 ± 0.025 mPa·s; mass density ([1]; 323.15 K, x1 = 1): 850.1 ± 10 kg/m3
CCCCOC(C)=O [butyl ethanoate] | 0.732 ± 0.037 | 881.1 ± 10 | 0.677 ± 0.034 | 876 ± 10 | 0.628 ± 0.032 | 870.9 ± 10 | 0.585 ± 0.03 | 865.7 ± 10 | 0.546 ± 0.028 | 860.5 ± 10 | 0.512 ± 0.026 | 855.3 ± 10 | 0.485 ± 0.025 | 850.1 ± 10 | 
CCCCCCCCCCO [decan-1-ol] | 14.42 ± 0.72 | 829.5 ± 10 | 11.8 ± 0.59 | 826.1 ± 10 | 9.76 ± 0.49 | 822.7 ± 10 | 8.14 ± 0.41 | 819.3 ± 10 | 6.84 ± 0.34 | 815.8 ± 10 | 5.8 ± 0.29 | 812.4 ± 10 | 4.96 ± 0.25 | 808.9 ± 10 | 
CCCCOC(C)=O [butyl ethanoate] + CCCCCCCCCCO |  |  |  |  |  |  |  |  |  |  |  |  |  |  | viscosity ([1]; 293.15 K, x1 = 1): 0.732 ± 0.037 mPa·s; mass density ([1]; 293.15 K, x1 = 1): 881.1 ± 10 kg/m3; viscosity ([1]; 298.15 K, x1 = 1): 0.677 ± 0.034 mPa·s; mass density ([1]; 298.15 K, x1 = 1): 876 ± 10 kg/m3; viscosity ([1]; 303.15 K, x1 = 1): 0.628 ± 0.032 mPa·s; mass density ([1]; 303.15 K, x1 = 1): 870.9 ± 10 kg/m3; viscosity ([1]; 308.15 K, x1 = 1): 0.585 ± 0.03 mPa·s; mass density ([1]; 308.15 K, x1 = 1): 865.7 ± 10 kg/m3; viscosity ([1]; 313.15 K, x1 = 1): 0.546 ± 0.028 mPa·s; mass density ([1]; 313.15 K, x1 = 1): 860.5 ± 10 kg/m3; viscosity ([1]; 318.15 K, x1 = 1): 0.512 ± 0.026 mPa·s; mass density ([1]; 318.15 K, x1 = 1): 855.3 ± 10 kg/m3; viscosity ([1]; 323.15 K, x1 = 1): 0.485 ± 0.025 mPa·s; mass density ([1]; 323.15 K, x1 = 1): 850.1 ± 10 kg/m3
CCCCCCCCO [octan-1-ol] | 9.13 ± 0.46 | 824.9 ± 10 | 7.62 ± 0.38 | 821.4 ± 10 | 6.41 ± 0.32 | 817.9 ± 10 | 5.43 ± 0.27 | 814.4 ± 10 | 4.63 ± 0.23 | 810.9 ± 10 | 3.98 ± 0.2 | 807.3 ± 10 | 3.44 ± 0.17 | 803.7 ± 10 | 
CCCCCCO [hexan-1-ol] | 5.37 ± 0.27 | 818.7 ± 10 | 4.58 ± 0.23 | 815.1 ± 10 | 3.94 ± 0.2 | 811.5 ± 10 | 3.4 ± 0.17 | 807.9 ± 10 | 2.95 ± 0.15 | 804.2 ± 10 | 2.58 ± 0.13 | 800.6 ± 10 | 2.26 ± 0.11 | 796.8 ± 10 | 
CCCCCCCCO [octan-1-ol] + CCCCOC(C)=O |  |  |  |  |  |  |  |  |  |  |  |  |  |  | viscosity ([1]; 293.15 K, x2 = 0): 9.13 ± 0.46 mPa·s; mass density ([1]; 293.15 K, x2 = 0): 824.9 ± 10 kg/m3; viscosity ([1]; 298.15 K, x2 = 0): 7.62 ± 0.38 mPa·s; mass density ([1]; 298.15 K, x2 = 0): 821.4 ± 10 kg/m3; viscosity ([1]; 303.15 K, x2 = 0): 6.41 ± 0.32 mPa·s; mass density ([1]; 303.15 K, x2 = 0): 817.9 ± 10 kg/m3; viscosity ([1]; 308.15 K, x2 = 0): 5.43 ± 0.27 mPa·s; mass density ([1]; 308.15 K, x2 = 0): 814.4 ± 10 kg/m3; viscosity ([1]; 313.15 K, x2 = 0): 4.63 ± 0.23 mPa·s; mass density ([1]; 313.15 K, x2 = 0): 810.9 ± 10 kg/m3; viscosity ([1]; 318.15 K, x2 = 0): 3.98 ± 0.2 mPa·s; mass density ([1]; 318.15 K, x2 = 0): 807.3 ± 10 kg/m3; viscosity ([1]; 323.15 K, x2 = 0): 3.44 ± 0.17 mPa·s; mass density ([1]; 323.15 K, x2 = 0): 803.7 ± 10 kg/m3
CCCCCCCO [heptan-1-ol] | 7.03 ± 0.35 | 822.2 ± 10 | 5.92 ± 0.3 | 818.7 ± 10 | 5.03 ± 0.25 | 815.2 ± 10 | 4.3 ± 0.22 | 811.6 ± 10 | 3.71 ± 0.19 | 808 ± 10 | 3.21 ± 0.16 | 804.4 ± 10 | 2.79 ± 0.14 | 800.7 ± 10 | 
CCCCOC(C)=O [butyl ethanoate] + CCCCCCCO |  |  |  |  |  |  |  |  |  |  |  |  |  |  | viscosity ([1]; 293.15 K, x1 = 1): 0.732 ± 0.037 mPa·s; mass density ([1]; 293.15 K, x1 = 1): 881.1 ± 10 kg/m3; viscosity ([1]; 298.15 K, x1 = 1): 0.677 ± 0.034 mPa·s; mass density ([1]; 298.15 K, x1 = 1): 876 ± 10 kg/m3; viscosity ([1]; 303.15 K, x1 = 1): 0.628 ± 0.032 mPa·s; mass density ([1]; 303.15 K, x1 = 1): 870.9 ± 10 kg/m3; viscosity ([1]; 308.15 K, x1 = 1): 0.585 ± 0.03 mPa·s; mass density ([1]; 308.15 K, x1 = 1): 865.7 ± 10 kg/m3; viscosity ([1]; 313.15 K, x1 = 1): 0.546 ± 0.028 mPa·s; mass density ([1]; 313.15 K, x1 = 1): 860.5 ± 10 kg/m3; viscosity ([1]; 318.15 K, x1 = 1): 0.512 ± 0.026 mPa·s; mass density ([1]; 318.15 K, x1 = 1): 855.3 ± 10 kg/m3; viscosity ([1]; 323.15 K, x1 = 1): 0.485 ± 0.025 mPa·s; mass density ([1]; 323.15 K, x1 = 1): 850.1 ± 10 kg/m3
CCCCCCO [hexan-1-ol] + CCCCOC(C)=O |  |  |  |  |  |  |  |  |  |  |  |  |  |  | viscosity ([1]; 293.15 K, x2 = 0): 5.37 ± 0.27 mPa·s; mass density ([1]; 293.15 K, x2 = 0): 818.7 ± 10 kg/m3; viscosity ([1]; 298.15 K, x2 = 0): 4.58 ± 0.23 mPa·s; mass density ([1]; 298.15 K, x2 = 0): 815.1 ± 10 kg/m3; viscosity ([1]; 303.15 K, x2 = 0): 3.94 ± 0.2 mPa·s; mass density ([1]; 303.15 K, x2 = 0): 811.5 ± 10 kg/m3; viscosity ([1]; 308.15 K, x2 = 0): 3.4 ± 0.17 mPa·s; mass density ([1]; 308.15 K, x2 = 0): 807.9 ± 10 kg/m3; viscosity ([1]; 313.15 K, x2 = 0): 2.95 ± 0.15 mPa·s; mass density ([1]; 313.15 K, x2 = 0): 804.2 ± 10 kg/m3; viscosity ([1]; 318.15 K, x2 = 0): 2.58 ± 0.13 mPa·s; mass density ([1]; 318.15 K, x2 = 0): 800.6 ± 10 kg/m3; viscosity ([1]; 323.15 K, x2 = 0): 2.26 ± 0.11 mPa·s; mass density ([1]; 323.15 K, x2 = 0): 796.8 ± 10 kg/m3
CCCCCCCCCO [nonan-1-ol] | 11.41 ± 0.57 | 827.5 ± 10 | 9.43 ± 0.47 | 824 ± 10 | 7.86 ± 0.39 | 820.5 ± 10 | 6.61 ± 0.33 | 817.1 ± 10 | 5.59 ± 0.28 | 813.6 ± 10 | 4.78 ± 0.24 | 810.1 ± 10 | 4.1 ± 0.21 | 806.5 ± 10 | 
